Data: patent publication US9556236B1, “Compositions and methods for treating respiratory syncytial virus infection” (priority 2012, dated 2017)
Entries after “also recorded” stand apart in the source; their conditions may differ. Positions of bridges follow the written chain, without caps; N, C: chain ends. No end group written: not given here.

What was measured:
RG RSV [1] = assay: HR2-D peptide series, prophylactic model of infection in Vero cells, GFP by flow cytometry; type: cell-based, respiratory syncytial virus; conditions: for GFP from positive control: prophylactic
Description: (§1) 25K Vero or A549 cells grown in 48-well plates and supplied with DMEM (no serum) were treated with a dose of peptides or micelle-peptides (5 μM peptide/well) for 30 min. previous to infection with RSV. Infection was carried out at a 0.1 MOI and allowed in the cell culture for 1 h. After removal of viral supernatant, the cells were treated with a second dose of peptides or peptide-loaded micelles containing 5 μM peptide/well in DMEM (5% FBS, 1% P/S). Infection was followed for a period of 48 h through microscopy and quantified through flow cytometry.
Infection experiments with the HR2-D series were carried out in Vero cells following a prophylactic model of infection using RG RSV (MOI=0.1) strain. At 48 h after infection, the cells were analyzed for GFP (positive RSV infection) by flow cytometry. […] Compared to HR2-D0, HR2-D1 is about 30% lower. For the activity of the inhibitor peptide HR2-D (˜20% GFP from positive control), as shown by the loss of activity by 1.5 fold for HR2-D2 vs. 2.5 fold for peptide HR2-D1. Moreover, the presence of the one free cysteine which is not forming a disulfide bond might result in destabilizing the whole structure. HR2-D1 and HR2-D2 have a free cysteine residue at position 9 and 32, respectively while HR2-S, HR2-D3 and HR2-D4 contain only one pair of cysteines.

RSV RA2 = assay: Prophylactic model of RSV infection in HEp2 cells, flow cytometry with FITC-labeled anti-RSV staining, RA2 RSV; type: cell-based, respiratory syncytial virus; conditions: two doses 5 μM peptide, 0.2 MOI
Description: (§2) The effect of inhibitory peptides (HR2-A, HR2-B, HR2-C, HR2-D, HR2-E, HR2-S, HR2-D0, HR2-D1, HR2-D2, HR2-D3, HR2-D4) on RG RSV infection given by prophylactic method was visualized by inverted fluorescence microscopy (Olympus IX371) and quantitated by flow cytometry. For plaque assays, 50K HEp2 cells/well were seeded in 24-well plates and infected with RG RSV (0.1-1 MOI) in the presence of peptides for 1 h. The viral supernatant was removed and a second dose of peptides in methylcellulose/5% FBS was overlaid onto the cells. Plaques were visualized and quantified (3-5 days pi). Cellular uptake was characterized using confocal microscopy and flow cytometry. For confocal imaging, 50K cells (Vero, A549) were placed on a […] and grown overnight before treatment with MPs (5 μM peptide conc./dish) and incubated for 1 h at 37° C. […] Uptake was quantified by flow cytometry (BD FacsAria analyzer/sorter). […] Final cell pellet was suspended in 400 μl of 1×PBS and analyzed for green and/or red content.
(§3) The anti-RSV activity of peptides HR2-S, HR2-E, HR2-A, HR2-B, HR2-C, and HR2-D was tested in vitro following a prophylactic model of RSV infection in HEp2 cells described in the experimental section above. RG and RA2 RSV strains were used to quantify infection by flow and RA2 and A2 strains were used to quantitate the viral titers by immunochemistry. […]

RG RSV [2] = assay: Prophylactic model of RSV infection in HEp2 cells, flow cytometry of GFP, RG RSV; type: cell-based, respiratory syncytial virus; conditions: two doses 5 μM peptide, 0.2 MOI, vs untreated positive control
Description: as §2, §3

A2 RSV = assay: RSV titers by plaque assay in HEp-2 cells in presence of peptide, A2 strain; type: cell-based, respiratory syncytial virus; conditions: for inhibition of A2 infection by viral titers: 24-96 h after infection
Description: (§4) Growth and titration of the respiratory syncytial virus (RSV) strains A2, RG RSV (green-fluorescent tag), and rA2 were performed as previously described in the literature.^17,18 RSV was propagated in HEp-2 cells containing 0.1 PFU/cell in T-175 flasks supplied with 7 ml of 2% FBS, OptiMEM (virus yield 10^6-10^7 pfu/ml). Infection was allowed for 2 h. (at 37° C., 5% CO2) and then replaced with fresh media. The infection was allowed to progress until CPE (80-90%), typically happening after 3 days of incubation. Viral suspension was collected and combined with scrapped cells in to a vial and centrifuged at 3200 rpm for 10 min at 4° C. The culture supernatant was collected and mixed with 0.1 volumes of sterile magnesium sulfate (1M). Last, viral supernatant was stored in cryovials and stored in liquid nitrogen tank.^18,19 Viral titers were measured using carboxymethylcellulose plaque assay on HEp-2 cells grown to 80-90% confluency at 5% FBS/DMEM in a 24-well plate (70K cells per well).^17,18,19 Virus particles were visible and quantitated after immunochemistry treatment of the cells with primary anti-RSV F mouse monoclonal [RSV3216 (B016)] (1:1000 dilution) and secondary antibody against primary with HRP conjugate.
The effect of inhibitory peptides (HR2-A, HR2-B, HR2-C, HR2-D, HR2-E, HR2-S, HR2-D0, HR2-D1, HR2-D2, HR2-D3, HR2-D4) on RG RSV infection given by prophylactic method was visualized by inverted fluorescence microscopy (Olympus IX371) and quantitated by flow cytometry. For plaque assays, 50K HEp2 cells/well were seeded in 24-well plates and infected with RG RSV (0.1-1 MOI) in the presence of peptides for 1 h. The viral supernatant was removed and a second dose of peptides in methylcellulose/5% FBS was overlaid onto the cells. Plaques were visualized and quantified (3-5 days pi). Cellular uptake was characterized using confocal microscopy and flow cytometry. For confocal imaging, 50K cells (Vero, A549) were placed on a […] and grown overnight before treatment with MPs (5 μM peptide conc./dish) and incubated for 1 h at 37° C. Cells were placed in a live-cell environmental chamber at 37° C. with 5% CO2 and imaged using spinning-disk confocal microscopy (Olympus IX81 confocal microscope). Uptake was quantified by flow cytometry (BD FacsAria analyzer/sorter). Samples for flow cytometry were prepared using 50K cells/well seeded in 24-well plates and grown in DMEM plus 10% FBS and incubated with peptides at a concentration of 5 μM peptide/well for 30 min at 37° C. […] Final cell pellet was suspended in 400 μl of 1×PBS and analyzed for green and/or red content.
Following the same methodology as for flow, two doses of peptides were used, and virus inoculation was 0.2 MOI. Titers were quantified 24 to 96 h after infection (pi).

RA2 RSV = assay: RSV titers by plaque assay in HEp-2 cells in presence of peptide, RA2 strain; type: cell-based, respiratory syncytial virus; conditions: 24-96 h after infection
Description: as §4, with “The culture supernatant was collected and mixed with 0.1 volumes of sterile magnesium sulfate (1M).” left out, “(1:1000 dilution) and secondary antibody against primary with HRP conjugate.” left out
The effect of inhibitory peptides (HR2-A, HR2-B, HR2-C, HR2-D, HR2-E, HR2-S, HR2-D0, HR2-D1, HR2-D2, HR2-D3, HR2-D4) on RG RSV infection given by prophylactic method was visualized by inverted fluorescence microscopy (Olympus IX371) and quantitated by flow cytometry. […] Plaques were visualized and quantified (3-5 days pi). […]

rgRSV = assay: In vivo model of rgRSV infection and intranasal prophylactic treatment; set-up: species or system BALB/c mice; conditions: intranasal 50 μL of 125 μM 1 h before rgRSV 1×10^6 pfu, 24 h post infection, vs empty micelle control
Description: Ten week old BALB/c mice (n=4 per group) were anesthetized and treated intranasally with the indicated HR2D peptide (125 μM in 1.2% DMSO) or packaged in filled micelles or with chitosan nanoparticles and empty micelles control. One hour post reatment, three groups of mice were inoculated with a single dose of rgRSV at 1×10^6 pfu/mouse. Mice were sacrificed at 24 hours post infection and the noses harvested, sectioned, stained with DAPI and imaged for GFP using an Olympus fluorescent microscope.
To determine if the in vitro anti-RSV activity of HR2D translated to an in vivo context, in vivo testing was performed on mice. HR2D peptide itself, HR2 peptide with filled micelles, empty micelles as control, and HR2D peptide chitosan nanocomplexes were each administered by nasal drop (50 μL of 125 μM solution in 1.2% DMSO) to ten week old BALB/c mice followed by intranasal inoculation with a single dose of rgRSV (1×10^6 pfu) one hour later. Mice were sacrificed 24 hours after infection, and the noses harvested, sectioned, stained with DAPI, and subjected to fluorescence imaging. […] Thus, we find that pretreatment of rgRSV-infected mice with intranasal HR2D peptide markedly decreases nasal infection.

RG RSV [3] = assay: Therapeutic antiviral activity of FMDs in A549 cells infected with RG RSV; type: cell-based, respiratory syncytial virus; conditions: administered 24 h pi, RG RSV low MOI
Description: 25K A549 cells grown in 48-well plates and supplied with DMEM (no serum) were infected with RSV at a 0.1 MOI for 1 h. After washing the viral supernatant, cells were incubated in DMEM (5% FBS, 1% P/S) allowing progression of infection for different time periods (4 and 24 h), however, only 24 h is shown here. At these two time points, cells were treated with a dose of peptides or micelle-peptides containing 5 μM peptide/well. Infection was followed for a period of 48 h through microscopy and quantified through Image J statistical analysis software.
For testing the efficiency of FMDs, cytotoxicity was measured in A549 cells at different HR2-D peptide concentrations using FM2D and FM3D, respectively (FIG. 10A). EM2 and EM3 represent empty micelle control. A549 cells were infected according to therapeutic conditions, and FMD (6 μM FM2D, 5 μM FM3D) were administered 24 h pi. The images were visualized 48 h pi (FIG. 10B) and the inhibitory efficiency quantified using flow cytometry (FIGS. 10C and 10D). […] FM3D had good inhibitory activity by suppressing the expression of GFP by 65% as compared to the control.

RG RSV [4] = assay: Free peptide and Cy5-labeled MPs, prophylactic model in Vero cells at low and high MOI, flow cytometry; type: cell-based, respiratory syncytial virus
Description: as §1
The effect of inhibitory peptides (HR2-A, HR2-B, HR2-C, HR2-D, HR2-E, HR2-S, HR2-D0, HR2-D1, HR2-D2, HR2-D3, HR2-D4) on RG RSV infection given by prophylactic method was visualized by inverted fluorescence microscopy (Olympus IX371) and quantitated by flow cytometry. […] Plaques were visualized and quantified (3-5 days pi). […] Uptake was quantified by flow cytometry (BD FacsAria analyzer/sorter). […] Final cell pellet was suspended in 400 μl of 1×PBS and analyzed for green and/or red content.
The hydrodynamic diameter of micelles with surface-conjugated peptides (MPs) was measured and compared to MPs with peptides also in the core (FMPs) (FIG. 6A). […] Subsequently experiments involved using Cy5 labeled peptides conjugated to the micelles and quantifying its activity against RG RSV infection by flow cytometry. […]

[5] = Hydrodynamic diameter by dynamic light scattering; type: physicochemical; conditions: DLS, in water
Description: The hydrodynamic radius of functionalized micelles (FMDs), micelle-peptide complexes (MPs), FMP, Cy5-amine-coated micelles and Cy5-HR2-D in water was measured using dynamic light scattering and zeta potential (DLS, Microtrac). Aliquots for DLS were prepared by diluting the stock samples 1:5, passing them through a 0.2 μm syringe-filter and sonicating for 10 min to disrupt aggregation.

[6] = RG RSV MOI=0.1, 48 h after infection

Sequence: DASISQVNEKINQSLAFIRKSDELLHNT (Chemically synthesized anti-RSV peptide) [HR2-D0, ID NO.: 8, control peptide with no cysteine]
- inhibitory activity against RSV infection (RG RSV [1]; [6]): did not show any inhibitory activity; also recorded: lack of activity

Sequence: DACISQVNEKINQSLAFICKSDELLCNT (not fully specified (bridges); cysteine pairing not given here) [HR2-D1, ID NO.: 9]
- GFP lower compared to HR2-D0 (RG RSV [1]; RG RSV MOI=0.1, 48 h): about 30%
- loss of activity relative to HR2-D (RG RSV [1]; RG RSV MOI=0.1, 48 h): 2.5 fold

Sequence: FDACISQVNECINQSLAFIRKSDELLHNVNAGKST (disulfide 4-11 (inferred)) [HR2-S, ID NO.: 2, one disulfide]
- inhibition of RA2 RSV infection (RSV RA2): most effective inhibitor
- inhibition of RG RSV infection (GFP expression) (RG RSV [2]): less GFP expression
- GFP from positive control (RG RSV [1]; [6]): ~38%
- inhibition of A2 infection by viral titers (A2 RSV): did not block A2 infection effectively
- reduction in A2 viral titers (A2 RSV; 24 h to 96 h pi, 0.2 MOI, 5 μM peptide): about 0.2 fold
- inhibition of RA2 infection by viral titers (RA2 RSV): did inhibit RA2 infection

Sequence: DASISQVNECINQSLAFICKSDELLHNT (disulfide 10-19 (inferred)) [HR2-D4, ID NO.: 12]
- activity less compared to HR2-S (RG RSV [1]; RG RSV MOI=0.1, 48 h): 2 fold

Sequence: DACISQVNECINQSLAFIRKSDELLCNT (not fully specified (bridges); cysteine pairing not given here) [HR2-D2, ID NO.: 10]
- loss of activity relative to HR2-D (RG RSV [1]; RG RSV MOI=0.1, 48 h): 1.5 fold

Sequence: DACISQVNEKINQSLAFIRKSDELLCNT (disulfide 3-26 (inferred)) [HR2-D3, ID NO.: 11]
- activity less compared to HR2-S (RG RSV [1]; RG RSV MOI=0.1, 48 h): 3 fold

Sequence: DACISQVNECINQSLAFICKSDELLCNT (disulfide (positions not given here)) [HR2-D, ID NO.: 7, two disulfides]
- RSV infection (GFP-positive cells) in nose sections (rgRSV): significantly decreased virus infected cells in the nose
- RSV infection (GFP-positive cells) in nose sections (rgRSV; listed as HR2D peptide): marked reduction in GFP-positive nasal tissue
- control of infection under therapeutic conditions (RG RSV [3]): did not control the infection significantly
- infection blocked compared to positive control (RG RSV [4]; low MOI (0.1), prophylactic, 24 h pi): 85%
- neutralization (peptide release comparison with controls) (RG RSV [4]; virus concentration not stated at this place): 70%
- inhibition of RG RSV infection (GFP expression) (RG RSV [2]): greatest inhibition of RG RSV infection
- GFP from positive control (RG RSV [1]; [6]): ~20%
- inhibition of A2 infection by viral titers (A2 RSV): greater inhibitory activity
- decrease in A2 titers (A2 RSV; 96 h pi, 0.2 MOI): 50,000 fold
- hydrodynamic diameter [5]: 2 nm
